pEC50: −log10 of the molar value.
target: human GLP1R (Homo sapiens (Human), UniProt P43220); assay: In vitro cAMP signal activation in human GLP1R stably-expressing cell line (hGLP1R-HEK293); format: cell-based; conditions: cAMP concentration in hGLP1R-HEK293; 100% = 1 nM human GLP-1 (7-37)
Sequence (P43220 24-463): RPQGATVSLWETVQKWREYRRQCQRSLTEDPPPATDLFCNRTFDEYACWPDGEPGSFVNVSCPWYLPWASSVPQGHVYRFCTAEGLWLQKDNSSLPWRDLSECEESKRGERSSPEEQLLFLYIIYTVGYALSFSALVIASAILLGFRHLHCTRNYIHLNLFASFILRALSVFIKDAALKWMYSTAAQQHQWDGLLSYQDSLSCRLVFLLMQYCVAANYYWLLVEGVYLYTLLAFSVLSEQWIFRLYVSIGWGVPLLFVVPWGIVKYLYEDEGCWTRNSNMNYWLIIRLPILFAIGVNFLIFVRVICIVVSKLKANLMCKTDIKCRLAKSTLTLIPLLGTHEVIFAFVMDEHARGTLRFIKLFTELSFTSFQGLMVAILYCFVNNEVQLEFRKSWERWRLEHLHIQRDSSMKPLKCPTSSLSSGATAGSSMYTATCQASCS

pEC50	Compound
8.70	Cc1cc(-n2nc3c(c2-n2ccn(-c4ccc5c(cnn5[C@@H]5CCOC5)c4)c2=O)[C@H](C)N(C(=O)c2cc4cc(C5CCOCC5)cc(F)c4n2[C@@]2(c4noc(=O)[nH]4)C[C@@H]2C)CC3)cc(C)c1F [compound 64]
8.46	Cc1cc(-n2nc3c(c2-n2ccn(-c4ccc5c(cnn5C)c4F)c2=O)[C@H](C)N(C(=O)c2cc4cc([C@H]5CCOC(C)(C)C5)ccc4n2[C@@]2(c4noc(=O)[nH]4)C[C@@H]2C)CC3)cc(C)c1Cl [compound 65, 3-[(1S,2S)-1-[2-[(4S)-2-(4-chloro-3,5-dimethylphenyl)-3-[3-(4-fluoro-1-methylindazol-5-yl)-2-oxoimidazol-1-yl]-4-methyl-6,7-dihydro-4H-pyrazolo[4,3-c]pyridine-5-carbonyl]-5-[(4S)-2,2-dimethyloxan-4-yl]indol-1-yl]-2-methylcyclopropyl]-4H-1,2,4-oxadiazol-5-one]
9.09	Cc1cc(-n2nc3c(c2-n2ccn(-c4ccc5c(cnn5C)c4)c2=O)[C@H](C)N(C(=O)c2cc4cc([C@H]5CCOC(C)(C)C5)ccc4n2[C@@]2(c4noc(=O)[nH]4)C[C@@H]2C)CC3)cc(C)c1F [compound 66, 3-[(1S,2S)-1-[5-[(4S)-2,2-dimethyloxan-4-yl]-2-[(4S)-2-(4-fluoro-3,5-dimethylphenyl)-4-methyl-3-[3-(1-methylindazol-5-yl)-2-oxoimidazol-1-yl]-6,7-dihydro-4H-pyrazolo[4,3-c]pyridine-5-carbonyl]indol-1-yl]-2-methylcyclopropyl]-4H-1,2,4-oxadiazol-5-one]
8.74	Cc1cc(-n2nc3c(c2-n2ccn(-c4ccc5c(cnn5C)c4Cl)c2=O)[C@H](C)N(C(=O)c2cc4cc([C@H]5CCOC(C)(C)C5)ccc4n2[C@@]2(c4noc(=O)[nH]4)C[C@@H]2C)CC3)cc(C)c1F [compound 68, 3-[(1S,2S)-1-[2-[(4S)-3-[3-(4-chloro-1-methylindazol-5-yl)-2-oxoimidazol-1-yl]-2-(4-fluoro-3,5-dimethylphenyl)-4-methyl-6,7-dihydro-4H-pyrazolo[4,3-c]pyridine-5-carbonyl]-5-[(4S)-2,2-dimethyloxan-4-yl]indol-1-yl]-2-methylcyclopropyl]-4H-1,2,4-oxadiazol-5-one]
8.55	Cc1cc(-n2nc3c(c2-n2ccn(-c4ccc5c(cnn5C)c4F)c2=O)[C@H](C)N(C(=O)c2cc4cc([C@H]5CCOC(C)(C)C5)ccc4n2[C@@]2(c4noc(=O)[nH]4)C[C@@H]2C)CC3)ccc1F [compound 69, 3-[(1S,2S)-1-[5-[(4S)-2,2-dimethyloxan-4-yl]-2-[(4S)-3-[3-(4-fluoro-1-methylindazol-5-yl)-2-oxoimidazol-1-yl]-2-(4-fluoro-3-methylphenyl)-4-methyl-6,7-dihydro-4H-pyrazolo[4,3-c]pyridine-5-carbonyl]indol-1-yl]-2-methylcyclopropyl]-4H-1,2,4-oxadiazol-5-one]
8.82	Cc1cc(-n2nc3c(c2-n2ccn(-c4cc5cnn(C)c5cc4F)c2=O)[C@H](C)N(C(=O)c2cc4cc([C@H]5CCOC(C)(C)C5)ccc4n2[C@@]2(c4noc(=O)[nH]4)C[C@@H]2C)CC3)cc(C)c1F [compound 70]
8.89	COCCn1ncc2cc(-n3ccn(-c4c5c(nn4-c4cc(C)c(F)c(C)c4)CCN(C(=O)c4cc6cc([C@H]7CCOC(C)(C)C7)ccc6n4[C@@]4(c6noc(=O)[nH]6)C[C@@H]4C)[C@H]5C)c3=O)c(F)cc21 [compound 71, 3-[(1S,2S)-1-[5-[(4S)-2,2-dimethyloxan-4-yl]-2-[(4S)-2-(4-fluoro-3,5-dimethylphenyl)-3-[3-[6-fluoro-1-(2-methoxyethyl)indazol-5-yl]-2-oxoimidazol-1-yl]-4-methyl-6,7-dihydro-4H-pyrazolo[4,3-c]pyridine-5-carbonyl]indol-1-yl]-2-methylcyclopropyl]-4H-1,2,4-oxadiazol-5-one]
8.64	Cc1cc(-n2nc3c(c2-n2ccn(-c4ccc5c(cnn5C)c4Cl)c2=O)[C@H](C)N(C(=O)c2cc4cc(C5CCOCC5)ccc4n2[C@@]2(c4noc(=O)[nH]4)C[C@@H]2C)CC3)cc(C)c1F [compound 72, 3-[(1S,2S)-1-[2-[(4S)-3-[3-(4-chloro-1-methylindazol-5-yl)-2-oxoimidazol-1-yl]-2-(4-fluoro-3,5-dimethylphenyl)-4-methyl-6,7-dihydro-4H-pyrazolo[4,3-c]pyridine-5-carbonyl]-5-(oxan-4-y)indol-1-yl]-2-methylcyclopropyl]-4H-1,2,4-oxadiazol-5-one]
8.60	CCc1nccc(-c2ccc3c(c2)cc(C(=O)N2CCc4nn(-c5cc(C)c(F)c(C)c5)c(-n5ccn(-c6ccc7c(cnn7C)c6)c5=O)c4[C@@H]2C)n3[C@@]2(c3noc(=O)[nH]3)C[C@@H]2C)c1C [compound 73, 3-[(1S,2S)-1-[5-(2-ethyl-3-methylpyridin-4-yl)-2-[(4S)-2-(4-fluoro-3,5-dimethylphenyl)-4-methyl-3-[3-(1-methylindazol-5-yl)-2-oxoimidazol-1-yl]-6,7-dihydro-4H-pyrazolo[4,3-c]pyridine-5-carbonyl]indol-1-yl]-2-methylcyclopropyl]-4H-1,2,4-oxadiazol-5-one]
8.21	COc1nccc(-c2cc3cc(C(=O)N4CCc5nn(-c6cc(C)c(F)c(C)c6)c(-n6ccn(-c7ccc8c(cnn8C)c7)c6=O)c5[C@@H]4C)n([C@@]4(c5noc(=O)[nH]5)C[C@@H]4C)c3cc2F)c1C [compound 74, 3-[(1S,2S)-1-[6-Fluoro-2-[(4S)-2-(4-fluoro-3,5-dimethylphenyl)-4-methyl-3-[3-(1-methylindazol-5-yl)-2-oxoimidazol-1-yl]-6,7-dihydro-4H-pyrazolo[4,3-c]pyridine-5-carbonyl]-5-(2-methoxy-3-methylpyridin-4-yl)indol-1-yl]-2-methylcyclopropyl]-4H-1,2,4-oxadiazol-5-one]
8.21	Cc1cc(-n2nc3c(c2-n2ccn(-c4ccc5c(cnn5C)c4)c2=O)CN(C(=O)c2cc4cc(C5CCOC6(CCCC6)C5)ccc4n2[C@@]2(c4noc(=O)[nH]4)C[C@@H]2C)CC3)cc(C)c1F (stereo partly drawn) [compound 75, 3-[(1S,2S)-1-[2-[2-(4-fluoro-3,5-dimethylphenyl)-3-[3-(1-methylindazol-5-yl)-2-oxoimidazol-1-yl]-6,7-dihydro-4H-pyrazolo[4,3-c]pyridine-5-carbonyl]-5-(6-oxaspiro[4.5]decan-9-yl)indol-1-yl]-2-methylcyclopropyl]-4H-1,2,4-oxadiazol-5-one]
8.62	COCCn1ncc2cc(-n3ccn(-c4c5c(nn4-c4cc(C)c(F)c(C)c4)CCN(C(=O)c4cc6cc(C7CCOC(C)(C)C7)ccc6n4[C@@]4(c6noc(=O)[nH]6)C[C@@H]4C)C5)c3=O)ccc21 (stereo partly drawn) [compound 76, 3-[(1S,2S)-1-[5-(2,2-dimethyloxan-4-yl)-2-[2-(4-fluoro-3,5-dimethylphenyl)-3-[3-[1-(2-methoxyethyl)indazol-5-yl]-2-oxoimidazol-1-yl]-6,7-dihydro-4H-pyrazolo[4,3-c]pyridine-5-carbonyl]indol-1-yl]-2-methylcyclopropyl]-4H-1,2,4-oxadiazol-5-one]
8.85	CC[C@H]1C[C@@H](c2ccc3c(c2)cc(C(=O)N2CCc4nn(-c5cc(C)c(F)c(C)c5)c(-n5ccn(-c6ccc7c(cnn7C)c6)c5=O)c4C2)n3[C@@]2(c3noc(=O)[nH]3)C[C@@H]2C)CCO1 [compound 77]
8.44	CC[C@H]1C[C@]1(c1noc(=O)[nH]1)n1c(C(=O)N2CCc3nn(-c4cc(C)c(F)c(C)c4)c(-n4ccn(-c5ccc6c(cnn6C)c5)c4=O)c3C2)cc2cc(C3CCOCC3)ccc21 [compound 78, 3-[(1S,2S)-2-Ethyl-1-[2-[2-(4-fluoro-3,5-dimethylphenyl)-3-[3-(1-methylindazol-5-yl)-2-oxoimidazol-1-yl]-6,7-dihydro-4H-pyrazolo[4,3-c]pyridine-5-carbonyl]-5-(oxan-4-yl)indol-1-yl]cyclopropyl]-4H-1,2,4-oxadiazol-5-one]
8.62	Cc1cc(-n2nc3c(c2-n2ccn(-c4ccc5c(cnn5C)c4)c2=O)CN(C(=O)c2cc4cc(C5CCOCC5)ccc4n2[C@@]2(c4noc(=O)[nH]4)C[C@@H]2CO)CC3)cc(C)c1F [compound 79, 3-[(1S,2S)-1-[2-[2-(4-fluoro-3,5-dimethylphenyl)-3-[3-(1-methylindazol-5-yl)-2-oxoimidazol-1-yl]-6,7-dihydro-4H-pyrazolo[4,3-c]pyridine-5-carbonyl]-5-(oxan-4-yl)indol-1-yl]-2-(hydroxymethyl)cyclopropyl]-4H-1,2,4-oxadiazol-5-one]
8.62	Cc1cc(-n2nc3c(c2-n2ccn(-c4ccc5c(cnn5C)c4)c2=O)[C@H](C)N(C(=O)c2cc4cc(C5CCOCC5)ccc4n2[C@@]2(c4noc(=O)[nH]4)C[C@@H]2C)[C@H](C)C3)cc(C)c1F [compound 80, 3-[(1S,2S)-1-[2-[(4S,6R)-2-(4-fluoro-3,5-dimethylphenyl)-4,6-dimethyl-3-[3-(1-methylindazol-5-yl)-2-oxoimidazol-1-yl]-6,7-dihydro-4H-pyrazolo[4,3-c]pyridine-5-carbonyl]-5-(oxan-4-yl)indol-1-yl]-2-methylcyclopropyl]-4H-1,2,4-oxadiazol-5-one]

Source: patent US10858356B2, “Pyrazolopyridine derivative having GLP-1 receptor agonist effect” (Chugai Seiyaku Kabushiki Kaisha, priority 2016, dated 2020)
